US20240409963A1, “Use of Inhibitors to Increase Efficiency of Crispr/CAS Insertions” (AstraZeneca AB, priority 2021, published 2024)

Legend:
[1] = system: HEK293T cells; assay: CRISPR/Cas9 double-strand break repair pathway and knock-in analysis (RIMA, amplicon sequencing), Examples 1-3; type: cell-based
Experimental: (§1) The effect of inhibitors of the MMEJ and NHEJ pathways on CRISPR-Cas-induced DNA double stranded break repair pathways was examined using the process shown schematically in FIG. 2A. Briefly, HEK293T cells were seeded into a 96-well plate 20 hours before transfection with plasmids encoding SpCas9 and a guide RNA (sgRNA) targeting CD34 together with a single-stranded oligonucleotide donor (ssDNA). […] The Pol Q inhibitors used are PolQ_2, PolQ_3, PolQ_4, PolQ_5, PolQ_6 or PolQ_7. Sixty hours post-transfection, genomic DNA was harvested and sequenced using deep-targeted amplicon sequencing. Genetic variants of the sequencing data were determined using a bioinformatic workflow, and the percentages of DNA double-stranded break repair by the MMEJ, NHEJ, and HDR pathways were determined using Rational InDel Meta-Analysis (RIMA). See, e.g., Taheri-Ghafarokhi et al, Nuc. Acids Res., 2018, 46 (16): 8417-8434. The RIMA results are plotted as shown in FIG. 2B, where deletions associated with microhomologies are visualized according to the bars shown in the figure.
The effect of NHEJ and MMEJ inhibitors on the CRISPR/Cas-mediated knock-in efficiency was determined in both mutated and mapped reads.
The effect of MMEJ pathway inhibition on mutated and mapped reads was assessed.

[2] = system: HEK293T cells; assay: Cell confluency and transfection efficiency in CRISPR/Cas-transfected cells, Example 4; type: cell-based; conditions: AZD7648 at a final concentration of 1 mM, FIG. 10
Experimental: as §1
HEK293T cells were cultured, transfected, and treated with NHEJ and MMEJ inhibitors as described in Example 1. Cell confluency and transfection efficiency was assessed in transfected cells treated with NHEJ and MMEJ inhibitors.

[3] = system: induced Pluripotent Stem Cells (iPSC); assay: Double-strand break repair pathways in Cas9-inducible iPSCs, Example 5; type: cell-based; conditions: single inhibitor: AZD7648 1 μM or PolQ inhibitor 3 μM, vs DMSO, FIG. 12
Experimental: (§2) The effect of NHEJ and/or MMEJ pathway inhibition on CRISPR-Cas-induced DNA double stranded break repair pathways in iPSCs was examined. Briefly, iPSCs comprising an inducible Cas9 gene were seeded into a 96-well plate 20 hours before transfection with a plasmid encoding a guide RNA (sgRNA) targeting one of three separate target sites together with a single-stranded oligonucleotide donor (ssDNA), followed by induction of Cas9 expression. […] Sixty hours post-transfection, the percentage of double-stranded break repair by the HDR, NHEJ, and MMEJ pathways was determined as discussed in Example 1.

[4] = system: Cas9-inducible iPSCs; assay: SSTR-mediated gene knock-in in Cas9-inducible iPSCs, Example 6; type: cell-based; conditions: single inhibitor, mapped reads, FIG. 13
Experimental: as §2
The effect of NHEJ and MMEJ pathway inhibition on gene knock-in efficiency mediated by the SSTR pathway in iPSCs was investigated. Briefly, Cas9-inducible iPSCs were cultured and transfected with sgRNA and ssDNA polynucleotides as described in Example 5.

[5] = system: HEK293T cells; assay: PolQ2 and PolQ6 on precise gene editing outcome at various target-sites, Example 9; type: cell-based; conditions: DNAPK inhibitor 1 μM, PolQ inhibitor 0 μM; for MMEJ indels Mean / NHEJ indels Mean / Total editing Mean: HEK293T, ssDNA donor; for Precise KI fold increase: vs DMSO
Experimental: (§3) HEK293T cells were seeded into 96-well plates and allowed to attach for 20 hours.

[6] = system: HEK293T cells; assay: PolQ inhibitor ART558 titration on precise gene editing outcomes, Example 10; type: cell-based
Experimental: as §3

[7] = system: HEK293T cells; assay: Off-target editing at HEK3 and HEK4 on- and off-target sites with DNAPK and PolQ inhibitors, Example 12; type: cell-based; conditions: DNAPK inhibitor 1 μM, PolQ inhibitor 0 μM
Experimental: as §3

[8] = system: HEK293T cells; assay: Different DNAPK inhibitors on precise gene editing outcomes, Example 8; conditions: for HDR to indel ratio / Precise KI fold increase: gINS + ssDNA; for Precise KI fold increase: vs DMSO; for MMEJ indels Mean / NHEJ indels Mean / Total editing Mean: sgRNA CD34 (gINS) + ssDNA, 70 hours post-transfection;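 for all read-outs here: cells transfected with plasmids for SpCas9-EGFP, editing outcomes quantified from genomic DNA by deep targeted amplicon sequencing with bioinformatic analysis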
Experimental: Cells allowed to attach for 12 hours before transfection. Cells were transfected with DNA plasmids encoding for SpCas9-EGFP and a sgRNAs targeting CD34 (gINS) in the presence of single-stranded oligonucleotide donor (ssDNA). 70 hours post-transfection cell confluence and EGFP-based transfection efficiencies were determined with the Incucyte S3. Genomic DNA was extracted and editing outcome was analysed through deep-targeted amplicon sequencing using bioinformatic analysis.

[9] = SpCas9 + sgRNA CD34 + ssDNA, AZD7648 1 μM alone or in combination with Pol Q inhibitors, vs DMSO controls, FIG. 4
[10] = HEK293T, sgRNA CD34 (gMEJ) + ssDNA, DNAPK inhibitor 1 μM, PolQ inhibitor 0 μM

## Cc1cc2ncnn2cc1Nc1ncc2c(n1)n(C1CCOCC1)c(=O)n2C [AZD7648]
[1]; AZD7648 1 μM alone and in combination with Pol Q inhibitors, FIG. 5
  CRISPR/Cas-mediated editing efficiency: did not affect
[1]; [9]
  double-strand break repair by the HDR pathway: marked in increase
  repair by the MMEJ and NHEJ pathways: decreased
[2]
  cell confluency: no significant effect
[3]
  double-strand break repair by the HDR pathway: marked in increase
  repair by the MMEJ and NHEJ pathways: decreased
[4]
  SSTR-mediated gene knock-in at all three target sites: increased
[5]; target-site gDel
  MMEJ indels Mean: 8.9
  NHEJ indels Mean: 1.3
  Total editing Mean: 77.3
  KI to indel ratio: 4.0
  Precise KI fold increase: 2.5 fold
[5]; target-site gMej
  MMEJ indels Mean: 27.9
  NHEJ indels Mean: 2.9
  Total editing Mean: 83.1
  KI to indel ratio: 1.0
  Precise KI fold increase: 2.2 fold
[5]; target-site glns
  MMEJ indels Mean: 13.3
  NHEJ indels Mean: 1.3
  Total editing Mean: 83.0
  KI to indel ratio: 3.3
  Precise KI fold increase: 3.3 fold
[6]; [10]
  MMEJ indels Mean: 32.6
  NHEJ indels Mean: 1.3
  Total editing Mean: 74.4
[6]; gMEJ + ssDNA, DNAPK inhibitor 1 μM, PolQ inhibitor 0 μM
  KI to indel ratio: 0.7
[7]; HEK3 nodonor
  OT1 off-target editing Mean: 41.9
  OT2 off-target editing Mean: 32.5
  OT3 off-target editing Mean: 16.3
  OT4 off-target editing Mean: 0.3
  on-target editing Mean: 73.8
[7]; HEK3 ssDNA
  OT1 off-target editing Mean: 17.7
  OT2 off-target editing Mean: 12.7
  OT3 off-target editing Mean: 7.6
  OT4 off-target editing Mean: 0.1
  on-target editing Mean: 61.5
[7]; HEK4 nodonor
  OT1 off-target editing Mean: 12.7
  OT2 off-target editing Mean: 7.3
  OT3 off-target editing Mean: 36.3
  on-target editing Mean: 9.8
[7]; HEK4 ssDNA
  OT1 off-target editing Mean: 5.4
  OT2 off-target editing Mean: 3.3
  OT3 off-target editing Mean: 18.2
  on-target editing Mean: 15.6
[8]; DNAPK inhibitor 0.3125 μM
  HDR to indel ratio: 0.3
  Precise KI fold increase: 1.4 fold
  MMEJ indels Mean: 15.2
  NHEJ indels Mean: 28.6
  Total editing Mean: 69.5
[8]; DNAPK inhibitor 0.625 μM
  HDR to indel ratio: 0.5
  Precise KI fold increase: 2.0 fold
  MMEJ indels Mean: 17.4
  NHEJ indels Mean: 18.3
  Total editing Mean: 66.0
[8]; DNAPK inhibitor 1.25 μM
  HDR to indel ratio: 0.6
  Precise KI fold increase: 2.0 fold
  MMEJ indels Mean: 16.5
  NHEJ indels Mean: 8.7
  Total editing Mean: 53.3
[8]; DNAPK inhibitor 5 μM
  HDR to indel ratio: 1.1
  Precise KI fold increase: 2.9 fold
  MMEJ indels Mean: 18.5
  NHEJ indels Mean: 2.5
  Total editing Mean: 57.5
[8]; DNAPK inhibitor 10 μM
  HDR to indel ratio: 1.1
  Precise KI fold increase: 2.8 fold
  MMEJ indels Mean: 16.9
  NHEJ indels Mean: 2.2
  Total editing Mean: 53.7

## Cc1cc2ncnn2cc1Nc1ncc2c(n1)N(C1CCOCC1)CC(=O)N2C [TLR2, 5-methyl-2-((7-methyl-[1,2,4]triazolo[1,5-a]pyridin-6-yl)amino)-8-(tetrahydro-2H-pyran-4-yl)-7,8 dihydropteridin-6 (5H)-one]
[8]; DNAPK inhibitor 0.3125 μM
  HDR to indel ratio: 0.6
  Precise KI fold increase: 2.3 fold
  MMEJ indels Mean: 16.7
  NHEJ indels Mean: 13.5
  Total editing Mean: 62.8
[8]; DNAPK inhibitor 0.625 μM
  HDR to indel ratio: 0.9
  Precise KI fold increase: 2.5 fold
  MMEJ indels Mean: 17.1
  NHEJ indels Mean: 6.1
  Total editing Mean: 56.8
[8]; DNAPK inhibitor 1.25 μM
  HDR to indel ratio: 1.0
  Precise KI fold increase: 2.3 fold
  MMEJ indels Mean: 16.0
  NHEJ indels Mean: 3.2
  Total editing Mean: 49.7
[8]; DNAPK inhibitor 5 μM
  HDR to indel ratio: 1.1
  Precise KI fold increase: 2.6 fold
  MMEJ indels Mean: 16.2
  NHEJ indels Mean: 2.1
  Total editing Mean: 50.9
[8]; DNAPK inhibitor 10 μM
  HDR to indel ratio: 1.1
  Precise KI fold increase: 2.1 fold
  MMEJ indels Mean: 13.6
  NHEJ indels Mean: 1.8
  Total editing Mean: 42.4

## Cc1cccc(N(C)C(=O)[C@@H]2[C@H](O)CCN2c2nc(C)cc(C(F)(F)F)c2C#N)c1 [ART558]
[6]; HEK293T, with 1 μM AZD7648, concentration-dependent
  precise knock-in frequencies of the single-stranded oligonucleotide donor: increases
[6]; HEK293T, with 1 μM AZD7648, with increasing inhibitor concentration
  unprecise DNA repair events: decreases
